Data reported in US11044937B2, “Solution comprising nicotine in unprotonated form and protonated form” (Nicoventures Holdings Limited, priority 2014, dated 2021).
Read-outs that look alike come from different tables or passages of the source.

Columns and labels:
[1] = on heating in an electronic vapor provision system; compared to many other acids
[2] = Description: The determination of pKa values of nicotine in glycerol/water systems was carried out using the basic approach described in “Spectroscopic investigations into the acid-base properties of nicotine at different temperatures”, Peter M. Clayton, Carl A. Vas, Tam T. T. Bui, Alex F. Drake and Kevin McAdam, Anal. Methods, 2013, 5, 81-88, and summarized below. Because the system is predominately non-aqueous the parameter psKa2 was measured, where subscript s refers to the solvent composition in this largely non-aqueous system, and subscript 2 refers to the pKa value of the pyrrolidyl nitrogen.
Further information on the determination of pKa values of nicotine is provided in “Use of chiroptical spectroscopy to determine the ionisation status of (S)-nicotine in e-cigarette formulations and snus”, Clayton et al, ST 49, CORESTA Congress, Qubec City, Canada, 12-16 Oct. 2014 (available at http://www.bat-science.com/groupms/sites/BAT_9GVJXS.nsf/vwPagesWebLive/DO9PVC3 G/$FILE/CORE STA_PC_2014.pdf).
A range of glycerol/water/nicotine solutions were prepared, with the water concentration fixed at 9%, the nicotine concentration varying from 30 μg/ml to 3 mg/ml; and the glycerol content comprising the remainder of the solutions.
Simultaneous UV & CD spectra of glycerol/s-nicotine/water solutions were measured on the Applied Photophysics Ltd (Leatherhead, UK) Chiracsan Plus spectrometer. The UV absorbance & CD spectra were measured between 300-200 nm region, with various pathlengths depending upon the nicotine concentration of the solution—10 mm, 5 mm, 2 mm, 1 mm, 0.5 mm, 0.1 mm and 0.01 mm pathlengths. The instrument was flushed continuously with pure evaporated nitrogen throughout the measurements. Throughout measurements spectra were recorded with a 0.5 nm step size, a 1 s measurement time-per-point and a spectral bandwidth of 2 nm. Where possible, all CD spectra were smoothed with a window factor of 4 using the Savitzky-Golay method for better presentation.
Solutions of S-Nicotine in glycerol/water were pH titrated at 23° C. The pH of these solutions was raised towards alkaline by adding small aliquots of NaOH (˜pH10) and then lowered to pH2 by adding small aliquots of HCl. A series of 0.1M, 0.5M, 1M, 5M and 10M of HCl and NaOH solutions were used during the pH titration. pHs were measured at 23° C. using a Corning pH105 pH meter with a RMS pH electrode. […] Due to the viscosity of the solutions, and the optical density in the CD spectra of the high nicotine concentration solutions, very small path-length cells were required for nicotine concentrations above 3 mg/ml.

O=C(O)c1ccccc1 [benzoic acid]
level of acid transfer to the aerosol [1]: greater
production of degradation products [1]: less

CC(=O)CCC(=O)O [levulinic acid]
level of acid transfer to the aerosol [1]: greater

CN1CCC[C@H]1c1cccnc1 [nicotine, 3-(1-methylpyrrolidin-2-yl) pyridine]
psKa2 ([2]; at 30 mg/ml nicotine concentration, from curve fitting (regression fit to FIG. 1)): 7.26
psKa2 ([2]; nicotine 0.03 g/L (0.185 mM), 9% water, nicotine/glycerol system, 23° C.): 7.49
psKa2 ([2]; nicotine 0.06 g/L (0.370 mM), 9% water, nicotine/glycerol system, 23° C.): 7.34
psKa2 ([2]; nicotine 0.3 g/L (1.85 mM), 9% water, nicotine/glycerol system, 23° C.): 7.30
psKa2 ([2]; nicotine 0.6 g/L (3.70 mM), 9% water, nicotine/glycerol system, 23° C.): 7.27
psKa2 ([2]; nicotine 3 g/L (18.53 mM), 9% water, nicotine/glycerol system, 23° C.): 7.25
